Laboratory results from US9623012B2, “Formulation comprising benzothiazolone compound” (priority 2013, dated 2017).
Structures can show the parent of a compound that is named as a salt.

Legend:
[1] = target: T1, human 5-HT2C receptor (Homo sapiens, UniProt P28335); experiment: 3H-Mesulergine binding to hr5-HT2C CHO cell membranes; settings: 3H-Mesulergine 1 nM, kind of constant not given
T1 construct: purchased Biosignal Packard, USA; host or cells: CHO cell membranes
T1 sequence (P28335 33-458): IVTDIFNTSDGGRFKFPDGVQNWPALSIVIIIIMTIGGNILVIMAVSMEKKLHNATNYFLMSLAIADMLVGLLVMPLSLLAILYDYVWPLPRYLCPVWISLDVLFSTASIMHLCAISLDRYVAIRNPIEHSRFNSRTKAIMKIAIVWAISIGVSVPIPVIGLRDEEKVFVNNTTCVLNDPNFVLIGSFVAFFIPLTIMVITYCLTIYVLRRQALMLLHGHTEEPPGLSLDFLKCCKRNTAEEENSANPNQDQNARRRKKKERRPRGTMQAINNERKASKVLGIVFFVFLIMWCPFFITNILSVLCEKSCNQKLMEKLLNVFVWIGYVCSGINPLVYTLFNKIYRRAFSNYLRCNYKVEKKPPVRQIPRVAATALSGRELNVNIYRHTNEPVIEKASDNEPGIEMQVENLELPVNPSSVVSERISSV
Protocol: Non-specific binding is evaluated in the presence of 1 μM Mesulergine. Fifty μL each of membrane, ligand and compound in a total volume of […] are incubated in 96-well plates for 60 min at 22° C. in a buffer containing 50 mM Tris, 0.1% ascorbic acid, 10 μM Pargyline, pH 7.7. The plates are filtrated, washed 3 times in ice-cold 50 mM Tris, dried and measured in Topcount.

[2] = target: T2, Serotonin 5-HT2C receptor (Homo sapiens, UniProt P28335); experiment: Aequorin agonist assay in CHO-K1 cells expressing Serotonin 5-HT2C; assay type: cell-based; settings: aequorin luminescence, agonist mode
T2 construct: expressed in transfected cells; host or cells: CHO-K1 cells coexpressing mitochondrial apoaequorin and Gα16
T2 sequence (P28335 33-458): T1 sequence (P28335 33-458)
Protocol: CHO-K1 cells coexpressing mitochondrial apoaequorin, recombinant Serotonin 5-HT2Cne and the promiscuous G protein Gα16, grown to mid-log phase in culture media without antibiotics were detached with PBS-EDTA, centrifuged and resuspended in assay buffer (DMEM/HAM's F12 with HEPES, without phenol red+0.1% BSA protease free) at a concentration of 1×10^6 cells/ml. Cells were incubated at room temperature for at least 4 h with coelenterazine h. […] For agonist testing, 50 μL of cell suspension were mixed with 50 μL of test or reference agonist in a 96-well plate. The resulting emission of light is recorded using Hamamatsu Functional Drug Screening System 6000 (FDSS 6000) luminometer. Agonist activity of test compound was expressed as a percentage of the activity of the reference agonist at its EC100 concentration.

[3] = target: human β2 adrenoceptor (β2 AR) (Homo sapiens, UniProt P07550); experiment: cAMP response in CHO cells stably transfected with human β2 adrenoceptor (Test 1)
[4] = target: human β1 adrenoceptor (β1 AR) (Homo sapiens, UniProt P08588); experiment: cAMP response in CHO cells stably transfected with human β1 adrenoceptor (Test 1)
[5] = Comparative solubility in H2O with pH adjustment; assay type: physicochemical
Protocol: The relative solubilities of the free base form and the acetate and glycolate salt forms of Compound A were analysed and the results are show in the table below. Solutions were titrated with addition of HCl or NaOH for pH adjustment. The improved aqueous solubilities of the acetate and glycolate salt forms relative to the free base form of Compound A make the acetate and glycolate salts of Compound A more suitable for subcutaneous injection or infusion.

[6] = tested on: Male Wistar Han IGS rats; assay type: in vivo; settings: rat, s.c. minipump 4 weeks; formoterol 0.003-0.03, Compound A 0.01-0.1 mg/kg/day
Protocol: Male Wistar Han IGS (International Genetic Standard) rats (Crl:WI(Han)) at the weight of 350-400 g were purchased from Charles River Laboratories. Rats were acclimated to the facility for 7 days. Animals were housed in groups of 3 animals at 25° C. with a 12:12 h light-dark cycle. They were fed a standard laboratory diet containing 18.2% protein and 3.0% fat with an energy content of 15.8 MJ/kg (NAFAG 3890, Kliba, Basel, Switzerland). Food and water were provided ad libitum. […] Pumps were filled with the solution and kept for several hours at 37° C. in PBS until surgical implantation. Rats were treated subcutaneously with Temgesic at a dose of 0.02 mg/kg with a volume of 1 ml/kg at least 30 minutes before surgery, and then the pumps filled with the solution indicated above were implanted subcutaneously into the back of the rats under anesthesia with isoflurane at a concentration of 3%. Temgesic was administered subcutaneously to the rats 24 h and 48 h after the surgery. Body weights were measured twice per week. Clips were removed 10 days after the surgery under anesthesia. Four weeks after the treatment, the rats were euthanized with CO2, and the tibialis anterior, gastrocnemius and soleus muscles, heart and brain were dissected and weighed. Brain weight was used for normalization of organ weights. Results are expressed as mean +/−SEM. […]

[7] = tested on: left atria from Dunkin Hartley Guinea pig; experiment: Left atrium contraction assay (Ricerca, Adrenergic beta1)
[8] = tested on: Wistar Han rats; experiment: Heart rate in vivo in rats after s.c. bolus; settings: rat, s.c. bolus up to 0.3 mg/kg
Text: Wistar Han (W-H) IGS (International Genetic Standard) rats (Crl:WI(Han)) were purchased from Charles River Laboratories. Femoral arterial and venous catheters were chronically implanted and exteriorized through a spring tether-swivel system and housed in specialized cages. Arterial catheter was connected to a pressure transducer to continuously measure pulse pressure, mean arterial pressure and heart rate, which was derived from the blood pressure signal, via a digital data acquisition system. Compounds were administered via s.c catheter implanted through the skin buttun. Values are expressed as means±SEM (n=3).

[9] = tested on: Rhesus monkeys; experiment: Heart rate in vivo in rhesus monkeys after s.c. bolus; settings: rhesus monkey, s.c. bolus up to 0.03 mg/kg
Protocol: Rhesus monkeys, 24 females with body weight around 4 to 8 kg, were randomized into 4 groups of n=6. The animals were restrained on a chair up to 4 hours after single subcutaneous administration of compounds, and then returned to their pens. Heart rates were measured using a Surgivet V3304 device. Values are expressed as means±SEM (n=6).

[10] = target: T3, human adrenergic Alpha1A (α1A AR) (Homo sapiens, UniProt P35348); experiment: Ca2+ FLIPR assay in human adrenergic Alpha1A CHO-K1 cell line (Test 1); assay type: cell-based; settings: read-out: CHO cells EC50 α1A AR
T3 sequence (P35348 1-466): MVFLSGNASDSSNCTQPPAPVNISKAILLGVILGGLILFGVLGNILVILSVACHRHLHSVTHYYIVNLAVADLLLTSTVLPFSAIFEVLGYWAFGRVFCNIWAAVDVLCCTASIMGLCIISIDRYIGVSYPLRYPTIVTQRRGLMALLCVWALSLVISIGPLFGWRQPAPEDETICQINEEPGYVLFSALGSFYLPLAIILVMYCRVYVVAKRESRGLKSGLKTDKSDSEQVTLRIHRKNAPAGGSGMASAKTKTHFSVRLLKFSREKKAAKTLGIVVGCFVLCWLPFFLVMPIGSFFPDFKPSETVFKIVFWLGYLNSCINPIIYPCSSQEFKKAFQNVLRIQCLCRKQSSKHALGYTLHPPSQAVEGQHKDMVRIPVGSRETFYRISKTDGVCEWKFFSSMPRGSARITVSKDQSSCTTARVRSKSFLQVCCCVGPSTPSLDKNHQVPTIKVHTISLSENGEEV
Protocol: Compounds acting as agonists induce a transient increase of intracellular calcium. This was recorded on the FLIPR system. A measurement of the signal baseline was first recorded every second for 2 minutes before the injection of the compounds. […] Low controls (unstimulated cells) were determined with the addition of 5 μL of assay buffer.

Sequence of human β2 adrenoceptor (β2 AR) (P07550 whole entry): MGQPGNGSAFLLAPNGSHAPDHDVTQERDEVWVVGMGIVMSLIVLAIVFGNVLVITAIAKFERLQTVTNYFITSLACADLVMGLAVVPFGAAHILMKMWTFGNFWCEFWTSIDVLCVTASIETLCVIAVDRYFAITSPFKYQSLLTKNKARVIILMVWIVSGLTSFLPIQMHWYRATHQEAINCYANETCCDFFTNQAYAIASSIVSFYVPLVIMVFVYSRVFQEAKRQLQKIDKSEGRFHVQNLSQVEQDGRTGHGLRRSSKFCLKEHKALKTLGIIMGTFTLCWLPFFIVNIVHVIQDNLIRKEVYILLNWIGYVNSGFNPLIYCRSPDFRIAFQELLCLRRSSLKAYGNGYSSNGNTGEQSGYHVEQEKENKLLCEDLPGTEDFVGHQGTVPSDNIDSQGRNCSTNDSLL
Sequence of human β1 adrenoceptor (β1 AR) (P08588 whole entry): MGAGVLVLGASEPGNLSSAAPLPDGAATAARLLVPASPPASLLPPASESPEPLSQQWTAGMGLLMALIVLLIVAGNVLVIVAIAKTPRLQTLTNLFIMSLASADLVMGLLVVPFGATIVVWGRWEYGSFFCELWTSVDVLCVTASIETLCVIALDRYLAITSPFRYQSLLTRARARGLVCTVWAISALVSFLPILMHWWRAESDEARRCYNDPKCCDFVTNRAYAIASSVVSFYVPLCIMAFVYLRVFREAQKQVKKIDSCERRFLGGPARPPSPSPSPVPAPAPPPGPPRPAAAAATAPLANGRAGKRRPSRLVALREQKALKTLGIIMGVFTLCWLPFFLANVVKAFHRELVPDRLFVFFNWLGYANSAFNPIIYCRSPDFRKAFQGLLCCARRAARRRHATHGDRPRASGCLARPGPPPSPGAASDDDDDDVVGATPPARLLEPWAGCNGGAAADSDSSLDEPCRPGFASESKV

CCCCOc1ccc(CC(C)(C)NCC(O)c2cc(O)cc3[nH]c(=O)sc23)cc1 (racemic) [Compound A/B]
Serotonin 5-HT2C Binding [1]: 1.7 µM | EC50 [2]: 25 nM | EC50 [3]: 11 nM | EC50 [4]: 684 nM

CCCCOc1ccc(CC(C)(C)NC[C@H](O)c2cc(O)cc3[nH]c(=O)sc23)cc1 [Compound A (R) acetate salt, (R)-7-(2-(1-(4-butoxyphenyl)-2-methylpropan-2-ylamino)-1-hydroxyethyl)-5-hydroxybenzo[d]thiazol-2(3H)-one acetate salt]
Emax ([3]; CHO, read-out: CHO cells Emax % β2 AR, cAMP, compared to isoprenaline): 91%

CCCCOc1ccc(CC(C)(C)NC[C@H](O)c2cc(O)cc3[nH]c(=O)sc23)cc1.O=C(O)CO [Compound A glycolate salt]
solubility in H2O, Conc ([5]; pH 5.1): 13100 µg/mL | solubility in H2O, Conc ([5]; pH 5.3): 6390 µg/mL | solubility in H2O, Conc ([5]; pH 5.4): 4470 µg/mL

CCCCOc1ccc(CC(C)(C)NC[C@H](O)c2cc(O)cc3[nH]c(=O)sc23)cc1 [Compound A, (R)-7-(2-(1-(4-butoxyphenyl)-2-methylpropan-2-ylamino)-1-hydroxyethyl)-5-hydroxybenzo[d]thiazol-2(3H)-one]
solubility in H2O, Conc ([5]; pH 7.3): <10 µg/mL | solubility in H2O, Conc ([5]; pH 7.8): <10 µg/mL | skeletal muscle mass and heart mass increase (FIG. 1) [6]: induces skeletal muscle hypertrophy with minimum impact on heart mass | EC50 ([7]; Cavia porcellus, guinea pig left atria, n = 2): > 10000 nM | effects on left atrium contraction ([7]; up to 10 μM): no effects | heart rate increase [8]: less heart rate increases compared to formoterol | heart rate increase [9]: less heart rate increase compared to formoterol | Serotonin 5-HT2C Binding [1]: 11 µM

CCCCOc1ccc(CC(C)(C)NC[C@@H](O)c2cc(O)cc3[nH]c(=O)sc23)cc1 [Compound B (S)]
EC50 [10]: > 30000 nM | Serotonin 5-HT2C Binding [1]: 0.8 µM | EC50 [2]: 19.7 nM | EC50 [3]: 950 nM | EC50 [4]: > 10000 nM
